This note sets out measurements from patent US20160213742A1, “COMPOSITIONS AND METHODS FOR THE TREATMENT OF FUNGAL INFECTIONS” (priority 2013, published 2016).

What all share (assay type): cell-based
One experiment deals with C. albicans ATCC 90028. Particulars: C. albicans ATCC 90028; read at 50% growth inhibition for echinocandins (24 h), 100% for amphotericin B (48 h). On the procedure: (§1) MIC and MEC assays were run as described in Example 31 with the following exceptions. Starting solutions of all antifungal agents were prepared in 100% DMSO. Stock concentrations were made at 50× the highest final assay concentration and serially diluted 2-fold, 16 times in a 96-well PCR plate (VWR 83007-374). Candida and Aspergillus suspensions from Sabouraud dextrose agar plate cultures were prepared in 0.85% saline at 0.5 McFarland standard (˜0.1 OD530 nm). Candida suspensions were diluted 1:500 in RPMI (MP Biomedicals, cat no. 1060124; buffered with MOPS and adjusted with NaOH to pH 7.0) to a concentration of ˜0.5-2.5×10^3 CFU/mL and Aspergillus suspensions were diluted 1:50 in RPMI to 0.4-5×10^4 CFU/mL final concentration. 98 μL of each cell suspension in RPMI were added to test wells in a 96-well assay plate (Costar cat. no. 3370). A Beckman Multimek 96 liquid handling robot was used to dispense 2 μL of each 50× stock compound into the plate containing 98 μL of each strain in RPMI (2% final solvent concentration). Plates were shaken then incubated at 35° C. for 24-48 h prior to reading. MIC values were read visually at 50% growth inhibition for echinocandins (24 h) and at 100% growth inhibition for amphotericin B (48 h). MEC values (24 h) were read with the aid of a microscope at the lowest echinocandin concentration where rounded/compact hyphal morphology was observed.

In experiment [1] the test system is C. parapsilosis ATCC 22019. The settings on record: C. parapsilosis ATCC 22019; read at 50% growth inhibition for echinocandins (24 h), 100% for amphotericin B (48 h). The procedure: as §1
The subject of a further experiment is A. flavus ATCC MYA-3631. As to the kind of experiment: MEC assay (Example 32). The settings on record: MEC values (24 h), rounded/compact hyphal morphology. The procedure:
as §1

For another experiment, the system named is A. fumigatus ATCC 13073. Briefly: MEC assay (Example 32). Particulars: MEC values (24 h), rounded/compact hyphal morphology. On the procedure:
as §1

The subject of a further experiment is A. fumigatus MYA-3626. As to the kind of experiment: MEC assay (Example 32). Particulars: MEC values (24 h), rounded/compact hyphal morphology. The procedure:
as §1

The test system of a further experiment is A. fumigatus MYA-4609. Briefly: MEC assay (Example 32). The settings on record: MEC values (24 h), rounded/compact hyphal morphology. On the procedure: as §1
The subject of the next experiment is A. niger ATCC 16404. As to the kind of experiment: MEC assay (Example 32). Particulars: MEC values (24 h), rounded/compact hyphal morphology. On the procedure:
as §1

Turning to “caspofungin acetate [reference compound]”, the figures for the minimal inhibitory concentration (MIC) (with C. albicans ATCC 90028; in experiment [1]) were 0.125 µg/mL and 0.5 µg/mL, respectively. The MEC stood at 0.06 µg/mL with A. flavus ATCC MYA-3631; 0.03 µg/mL with A. fumigatus ATCC 13073; 0.06 µg/mL in the experiment with A. fumigatus MYA-3626; 0.06 µg/mL with A. fumigatus MYA-4609; 0.06 µg/mL in the experiment with A. niger ATCC 16404.
